Test results as given in PMC12656566, “Toxicokinetic Characterization of MDM Hydantoin via Stable Metabolite DMH: Population Modeling for Predicting Dermal Formaldehyde Formation” (Toxics, 2025).
Values joined by “and” are separate entries in the source; they are usually repeats but may differ in a detail not shown here. Equal values may be shown once. Read-outs that look alike come from different tables or passages of the source.

Assay: Toxicokinetics after intravenous injection of MDMH or DMH (plasma, LC-MS/MS, non-compartmental analysis)
Format: in vivo
Conditions: rats; for half-life / clearance / Vd / AUC(0-t) / C0 / AUC(0-inf): male, Sprague-Dawley, rat; for half-life / clearance / Vd: plasma; for half-life: iv; for Vd: read-out: Vz; for AUC(0-inf): read-out: AUCinfinity
Experimental: An API 4000 LC-MS/MS system (Applied Biosystems/MDS Sciex, Foster City, CA, USA) coupled with an Agilent 1100 HPLC (Agilent Technologies, Santa Clara, CA, USA) was used for determination of MDMH and DMH in rat plasma. The analytes were separated on a Synergi Fusion-RP 80 Å (150 × 2.0 mm, i.d., 4 µm;) with a Security Guard™ Cartridge AJ0-7556 (Phenomenex, Torrance, CA, USA), and the column oven temperature was maintained at 30 °C. An isocratic solvent system of distilled water and methanol (80:20, v/v) was used with a runtime of 7 min. The injection volume was 10 µL, and the flow rate was maintained at 0.2 mL/min.
For plasma sample preparation, formic acid was immediately added to blood samples upon collection to achieve a final concentration of 0.5% to prevent potential enzymatic degradation of MDMH, and all sample preparation procedures were conducted at ≤4 °C to minimize temperature-dependent decomposition of the analytes. For analysis, 50 μL of internal standard solution and 100 μL of methanol containing 0.5% formic acid (as precipitating solvent) were added to 50 μL of plasma, followed by vortex-mixing for 2 min. After centrifugation at 21,206× g for 10 min, 40 μL of supernatant was mixed with 160 μL of 0.5% formic acid in distilled water, and 10 μL was injected into the LC-MS/MS system.
All animal care and experiments were conducted to evaluate the toxicokinetics of MDMH and DMH according to the Guidelines for the Care and Use of Animal approved by the Ethics Committee for Treatment of Laboratory Animal at Daegu Catholic University (CUD-2019-020). To evaluate the toxicokinetics of MDMH and DMH in rats after intravenous injection (IV) or transdermal application (TD). Male Sprague-Dawley rats (9 weeks, body weight 260–310 g) (Hyochang Science Co., Daegu, Republic of Korea) were kept in plastic cages and fed regularly with water and feed. Rats were acclimated for a minimum of 1 week prior to the experiment under conditions keeping a 12 h light-dark cycle, a temperature of 23 ± 2 °C, and a relative humidity of 50 ± 10%. The rats were cannulated using polyethylene tubing (0.58 mm i.d., 0.96 mm o.d., Natsume, Tokyo, Japan) in the jugular vein after intraperitoneal injection at a dose of 0.9 mL/kg of Zoletil 50 (Virbac, Carros, France).
For IV injection, MDMH or DMH was dissolved in distilled water, respectively, and the dose was 50 or 10 mg/kg, respectively. Blood samples were collected via the jugular vein in the MDMH administration group at 0, 0.5, 1, 1.5, 2, 2.5, 3, 5, 10, and 15 min and 1, 2, 4, 8, 12, and 24 h (16 points/head), and in the DMH administration group at 0, 2, 5, 10, 15, 30 min and 1, 2, 4, 8, 12, and 24 h (12 points/head). Plasma samples were harvested by centrifugation of obtained blood for 10 min at 4000× g, and stored at −20 °C until analysis.
The toxicokinetic parameters were calculated by standard non-compartmental analysis using the non-linear least squares regression program Phoenix™ WinNonlin® 6.1 (Pharsight, Cary, NC, USA).
The non-compartmental toxicokinetic parameters included terminal half-life (t1/2), area under the plasma concentration versus time curve from time zero to the last observation time point (AUClast) and to infinity (AUCinfinity), volume of distribution (Vz), and systemic clearance (CL). The maximum plasma concentration (Cmax) and the time to reach Cmax (Tmax) were obtained directly from the observed data. Absolute bioavailability (F) was estimated as the ratio of the dose-normalized AUCinfinity of MDMH and DMH following TD application compared to IV injection. The fraction metabolized (Fm) was calculated as the ratio of metabolite AUC to parent AUC after correction for molecular weight differences, accounting for the stoichiometric conversion relationship:(1) Fm=AUCDMH·MWMDMH/AUCMDMH·MWDMH where MWMDMH = 158.16 g/mol and MWDMH = 128.13 g/mol. […]

[1] = DMH in plasma after IV injection of DMH 10 mg/kg, n = 5
[2] = DMH after IV injection of DMH 10 mg/kg, n = 5
[3] = MDMH after IV injection of MDMH 50 mg/kg, n = 5
[4] = MDMH in plasma after IV injection of MDMH 50 mg/kg, n = 5

CC1(C)NC(=O)NC1=O [DMH, 5,5-dimethylhydantoin]
duration of initial distribution phase (alpha phase) (DMH after direct intravenous administration of DMH): approximately 30 min
t1/2 [1]: 3.0212 ± 0.5513 h
half-life (10 mg/kg, DMH after IV injection of DMH 10 mg/kg, read-out: t1/2 (hour equivalent)): 3.02 h
half-life (10 mg/kg, DMH in plasma after IV injection of DMH 10 mg/kg, n = 5, read-out: t1/2): 3.02 ± 0.55 h
clearance [2]: 4 mL/min/kg
Vd [2]: 1 ± 0.47 L/kg
AUC(0-t) [1]: 47100 ± 29900 ng·h/mL
C0 [1]: 26.9 ± 18.3 µg/mL
AUC(0-inf) [1]: 55000 ± 36800 ng·h/mL

CC1(C)C(=O)NC(=O)N1CO [MDMH, 1-(Hydroxymethyl)-5,5-dimethylhydantoin]
Fm to DMH (fraction of MDMH metabolized to DMH) (IV injection of MDMH 50 mg/kg, AUC ratio adjusted for molecular weight): 97.6 ± 9.6% and 97.59 ± 9.64%
time until parent compound plasma concentrations reached below the quantification limit (MDMH after i.v. injection of MDMH): ≤ 5 min
half-life (50 mg/kg, MDMH after IV injection of MDMH 50 mg/kg, read-out: t1/2 (hour equivalent)): 0.007 h
half-life (50 mg/kg, MDMH in plasma after IV injection of MDMH 50 mg/kg, n = 5, mean ± S.D., read-out: t1/2): 0.00667 ± 0.00167 h
clearance [3]: 1570 mL/min/kg
Vd [3]: 0.84 ± 0.04 L/kg
AUC(0-t) [4]: 570 ± 190 ng·h/mL
C0 [4]: 77.9 ± 28.1 µg/mL
AUC(0-inf) [4]: 580 ± 180 ng·h/mL
